Experimental data from paper PMC4459817, “Vasculotide reduces endothelial permeability and tumor cell extravasation in the absence of binding to or agonistic activation of Tie2” (EMBO Molecular Medicine, 2015).

Assays:
[1] = system: pancreatic neuroendocrine tumors; details: ref Paez-Ribes et al, 2009; cited from earlier work
From the text: There are at least two plausible explanations for this differential impact of SU on hematogenous metastasis (to lung/liver) vs. lymphogenous metastasis (to LNs). Paez-Ribes et al ...

[2] = system: HT29luc metastases in YFP-SCID mice; experiment: experimental HT29luc liver/lymphatic metastasis model (IV); format: in vivo, human HT29luc cells in YFP-SCID mice; details: VT vs PBS; Fig3A–D; 35DPI imaging
From the text: (§1) Figure 3 Vasculotide has no effect on experimental liver metastases from a colon cancer cell line (HT29^luc), nor on experimental lung metastases from a renal cancer cell line (SN12^luc) • A–D An experiment where HT29^luc tumor cells were implanted intravenously into YFP-SCID mice. (A) Kaplan–Meier survival analysis. (B) Quantification of total metastatic burden in the liver and lymphatics, at 35 days post-implantation (DPI), from whole-body bioluminescent imaging (C). (D) Photograph of typical liver metastases. • E–G An experiment where SN12^luc tumor cells were implanted intravenously into YFP-SCID mice. (E) Kaplan–Meier survival analysis. (F) Quantification of total metastatic burden at 50DPI, mostly within the lungs, from whole-body bioluminescent imaging (G). […]
(§2) For in vivo BI: Mice were injected intraperitoneally with 150mg/kg luciferin (Promega) 10 minutes prior to and anesthetized with isofluorane just before luminescent pseudocolor imaging (uniform settings: CCD camera locked at -105 °C, exposure=60s, f/1, subject size=1.5cm, bin=8, FOV=23.2cm, full image correction) using the IVIS 200 Imaging System (Caliper/PerkinElmer). Using the Living Image software (v2.50.1, Xenogen), weekly images were analyzed under uniform color range on grayscale photographic overlay. […]

[3] = system: SN12luc lung metastases in YFP-SCID mice; experiment: experimental SN12luc lung metastasis model (IV); format: in vivo, human SN12luc cells in YFP-SCID mice; details: VT 250 ng/2 days or 400 ng/2 days; Fig3E–G; 50DPI imaging
From the text: as §1, §2

[4] = molecular target: T1, human Tie2-Fc (Fc-conjugated extracellular domain of Tie2) (human, UniProt Q02763 23-748); experiment: SPR
T1 chain: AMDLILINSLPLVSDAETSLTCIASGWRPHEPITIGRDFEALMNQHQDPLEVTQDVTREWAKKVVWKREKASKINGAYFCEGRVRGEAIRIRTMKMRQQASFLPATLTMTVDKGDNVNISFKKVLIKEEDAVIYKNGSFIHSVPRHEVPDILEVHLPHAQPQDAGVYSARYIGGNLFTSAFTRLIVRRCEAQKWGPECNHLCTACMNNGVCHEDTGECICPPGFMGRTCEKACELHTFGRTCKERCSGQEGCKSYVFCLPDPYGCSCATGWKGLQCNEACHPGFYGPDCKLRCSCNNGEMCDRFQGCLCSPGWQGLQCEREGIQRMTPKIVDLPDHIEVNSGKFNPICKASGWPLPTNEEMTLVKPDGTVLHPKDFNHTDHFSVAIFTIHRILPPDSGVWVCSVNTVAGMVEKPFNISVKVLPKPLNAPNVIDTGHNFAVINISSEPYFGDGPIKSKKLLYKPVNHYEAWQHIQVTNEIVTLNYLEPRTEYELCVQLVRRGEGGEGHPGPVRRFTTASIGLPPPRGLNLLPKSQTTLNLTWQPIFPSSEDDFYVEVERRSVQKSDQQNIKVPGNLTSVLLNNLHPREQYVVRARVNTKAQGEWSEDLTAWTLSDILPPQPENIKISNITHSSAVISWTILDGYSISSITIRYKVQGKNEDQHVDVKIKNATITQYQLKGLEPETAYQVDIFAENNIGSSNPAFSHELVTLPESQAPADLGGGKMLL

CCN(CC)CCNC(=O)c1c(C)[nH]c(/C=C2\C(=O)Nc3ccc(F)cc32)c1C [sunitinib, reference compound]
metastasis to the liver but not the lymph nodes [1]: increased metastasis to the liver but not the lymph nodes

CHHHRHSF [Vasculotide, 4-armed maleimide-functionalized polyethylene glycol (PEG) backbone to link together four cysteine-capped T7 peptides, that is, CHHHRHSF]
survival, metastatic burden (IVBI) and liver-specific metastases [2]: No significant differences | lung metastases response [3]: did not respond to VT treatment

B1: recombinant human Ang1 (rhAng1) (ligand, UniProt Q15389 16-498, looked up)
chain: HIGCSNQRRSPENSGRRYNRIQHGQCAYTFILPEHDGNCRESTTDQYNTNALQRDAPHVEPDFSSQKLQHLEHVMENYTQWLQKLENYIVENMKSEMAQIQQNAVQNHTATMLEIGTSLLSQTAEQTRKLTDVETQVLNQTSRLEIQLLENSLSTYKLEKQLLQQTNEILKIHEKNSLLEHKILEMEGKHKEELDTLKEEKENLQGLVTRQTYIIQELEKQLNRATTNNSVLQKQQLELMDTVHNLVNLCTKEGVLLKGGKREEEKPFRDCADVYQAGFNKSGIYTIYINNMPEPKKVFCNMDVNGGGWTVIQHREDGSLDFQRGWKEYKMGFGNPSGEYWLGNEFIFAITSQRQYMLRIELMDWEGNRAYSQYDRFHIGNEKQNYRLYLKGHTGTAGKQSSLILHGADFSTKDADNDNCMCKCALMLTGGWWFDACGPSNLNGMFYTAGQNHGKLNGIKWHYFKGPSYSLRSTTMMIRPLDF
notes: angiopoietin-1, human, recombinant; also called angiopoietin-1; source: bought: R&D Systems (named for the Boyden chamber experiments)
koff [4]: 0.00029 s⁻¹
